# Reference: publication PMC4721142, “Randomized controlled studies on the efficacy of antiarthritic agents in inhibiting cartilage degeneration and pain associated with progression of osteoarthritis in the rat” (Arthritis Research & Therapy, 2016)
# “And” between values parts separate entries of the source, which are not always exact repeats. Equal entries are not always repeated.
# What was measured:
# MIA rat model of OA = assay: MIA trial 2 histopathology (same doses as dRS test); format: in vivo; conditions: group mean; tacrolimus 0.3 mg/kg, other drugs single dose
# Method: Following functional testing in the first and second MIA trials, femurs were fixed in paraformaldehyde, processed, sectioned, stained with hematoxylin and eosin or Safranin O at Premier Laboratory (Longmont, CO, USA), and analyzed by a veterinary pathologist. For MIA trial 1, sections were evaluated for the percentage area of chondrocyte necrosis and/or proteolytic degeneration using a 5-point scale with 0 = none; 1 being <10 %; 2 = 10–30 %; 3 = 30–60 %; 4 = 60–90 %; and 5 being >90 %. Other characteristics of inflammation, proliferation, and integrity of the synovium, subchondral bone, and articular cartilage were scored as normal, minimal, mild, moderate, marked, or increased or decreased when severity was not graded. MIA trial 2 was measured similarly and then cross-checked according to the methods used for MIA trial 3 (see text below).
# For MIA trial 3, joints were fixed and toluidine blue–stained sections of the rat knees were comprehensively analyzed from test and control subjects as detailed in Additional file 1. Briefly, a 5-point cartilage matrix score was derived based upon (1) approximate percentage of total loss of articular chondrocytes for each of four articular surfaces, (2) estimated proteoglycan loss (via Safranin O staining), and (3) loss of interstitial matrix. Chondrocyte necrosis and proteolytic degeneration of the femurs were scored on a 5-point scale as in trial 1. A femoral cartilage degeneration score and a three-zone sum of the tibial cartilage degeneration scores (mean of three levels) were also summed to create a total cartilage degeneration score. The mean osteophyte score for each joint was added to this value to create a total joint score with matrix. Other parameters assessed included synovial membrane inflammation and proliferation. Representative images from each group were also collected (see, e.g., Fig. 4 and Additional file 1: Fig. S55, Trial 3).
# The histopathology for the first MIA trial was performed by Premier Laboratories (Dr. Michael Hawes, APS, Pathologist). Treatments were masked during the assessment. Chondrocyte necrosis and proteolytic degeneration of the femurs were scored on a 5 point scale with 0 = None; 1 = <10%; […]
# proteoglycan content (safranin O staining), synovial membrane inflammation and proliferation, subchondral bone, and articular cartilage (as indicated in Supplementary methods). Characteristics within these categories were scored as normal, minimal, mild, moderate, marked, or +/- when severity was not graded. Slides from Trial 2 were further reviewed by Dr. Bendele using the analytical method described below for the MMT/MCLT model to confirm any conclusions.
# For the histopathology of the MIA model in Trial 3, completed by Bolder BioPATH (and Dr.
# Bendele), a tolouidine blue stained slide containing both halves of the joint was comprehensively analyzed from test and control subjects. Approximate % of total loss of articular chondrocytes, loss of proteoglycan and loss of collagenous matrix were determined for each articular surface (medial tibial plateau (MTP), lateral tibial plateau (LTP), medial femoral condyle (MFC), and lateral femoral condyle (LFC). Chondrocyte loss was quantified by estimating the area of cartilage in which there were no apparently viable chondrocytes and proteoglycan loss was quantified by estimating differences in intensity of toluidine blue matrix staining. Loss of interstitial matrix was an indication of disruption and diminished type II collagen. Based on the mean % loss for the four surfaces in these parameters, a five point matrix score was utilized with the subchondral bone resorption, subchondral bone sclerosis and osteophyte scores to achieve a total joint score.
# (§1) Histopathology MMT/MCLT Model
# MMT/MCLT rat model of OA = assay: MMT/MCLT trial 2 histopathology (same doses); format: in vivo; conditions: i.a., tacrolimus 15 ng
# Excerpt: For MMT/MCLT rat knee joints, sections were cut in 200-μm steps; stained with toluidine blue (also with a right and left half per section); and similarly analyzed for cartilage degeneration, proteoglycan loss, collagen damage, and osteophyte formation. Results were averaged across the three sections for an overall semiquantitative score. Regional differences across the tibial plateau were taken into consideration by dividing each section into three zones delineated using an ocular micrometer (outside, middle, and inside). Scores were based on the percentage of area affected within the zone.
# Cartilage degeneration in the tibia was scored on a 5-point scale as detailed in the Methods section of Additional file 1. The total extent of degeneration of the tibial plateau was measured (in micrometers) and included an analysis of cell loss, proteoglycan loss, and collagen damage. Significant cartilage degeneration reflecting any degeneration extending through more than 50 % of the cartilage thickness was also measured. Collagen damage across the medial tibial plateau (the most severely affected section of the two halves) was also quantified.
# Osteophytes and femoral cartilage degeneration were analyzed as detailed in Additional file 1. Scoring of the osteophytes and categorization into small, medium, and large was performed using an ocular micrometer. The actual osteophyte measurement (tidemark to farthest distance point extending toward the synovium) was also recorded. The femoral cartilage degeneration score and the three-zone sum of the tibial cartilage degeneration scores (mean of three levels) were summed to create a total cartilage degeneration score. The mean osteophyte score for each joint was added to this value to create a total joint score. […]
# as §1
smiles,measurement,setting,value
"COc1cc(/C=C/C(=O)CC(=O)/C=C/c2ccc(O)c(OC)c2)ccc1O [Curcumin, Diferuloylmethane]",Bone resorption score,MIA rat model of OA,4.8
same,"Bone resorption, percent of surface, LFC",MIA rat model of OA,100%
same,"Bone resorption, percent of surface, LTP",MIA rat model of OA,100%
same,"Bone resorption, percent of surface, MFC",MIA rat model of OA,88%
same,"Bone resorption, percent of surface, MTP",MIA rat model of OA,90%
same,"Bone resorption, percent of surface, mean",MIA rat model of OA,94%
same,Cartilage matrix damage score,MIA rat model of OA,5.0 and 5.0 ± 0.0
same,Mean of all cartilage loss,MIA rat model of OA,89%
same,Osteophyte measure,MIA rat model of OA,1000.0 µm
same,Osteophyte score,MIA rat model of OA,4.8
same,Subchondral bone sclerosis score,MIA rat model of OA,0.0
same,Total joint score w/o matrix,MIA rat model of OA,9.5
same,Total joint score with matrix,MIA rat model of OA,14.5 and 14.5 ± 0.3
same,Femoral cartilage degeneration score,MMT/MCLT rat model of OA; mean,1.63 ± 0.61
same,Total joint score,MMT/MCLT rat model of OA; mean,9.57 ± 0.91
same,"% decrease, tibial score zone 2","MMT/MCLT rat model of OA; vs saline group, curcumin 30 μg",40%
